From patent publication US20210395239A1 (Hoffmann-La Roche Inc., priority 2018, published 2021) come the findings set out here.

This assay deals with T1, human TLR8 (Homo sapiens, UniProt Q9NR97).
T1 construct: host or cells: HEK293 (HEK-Blue hTLR8)
T1 sequence (Q9NR97 27-1041): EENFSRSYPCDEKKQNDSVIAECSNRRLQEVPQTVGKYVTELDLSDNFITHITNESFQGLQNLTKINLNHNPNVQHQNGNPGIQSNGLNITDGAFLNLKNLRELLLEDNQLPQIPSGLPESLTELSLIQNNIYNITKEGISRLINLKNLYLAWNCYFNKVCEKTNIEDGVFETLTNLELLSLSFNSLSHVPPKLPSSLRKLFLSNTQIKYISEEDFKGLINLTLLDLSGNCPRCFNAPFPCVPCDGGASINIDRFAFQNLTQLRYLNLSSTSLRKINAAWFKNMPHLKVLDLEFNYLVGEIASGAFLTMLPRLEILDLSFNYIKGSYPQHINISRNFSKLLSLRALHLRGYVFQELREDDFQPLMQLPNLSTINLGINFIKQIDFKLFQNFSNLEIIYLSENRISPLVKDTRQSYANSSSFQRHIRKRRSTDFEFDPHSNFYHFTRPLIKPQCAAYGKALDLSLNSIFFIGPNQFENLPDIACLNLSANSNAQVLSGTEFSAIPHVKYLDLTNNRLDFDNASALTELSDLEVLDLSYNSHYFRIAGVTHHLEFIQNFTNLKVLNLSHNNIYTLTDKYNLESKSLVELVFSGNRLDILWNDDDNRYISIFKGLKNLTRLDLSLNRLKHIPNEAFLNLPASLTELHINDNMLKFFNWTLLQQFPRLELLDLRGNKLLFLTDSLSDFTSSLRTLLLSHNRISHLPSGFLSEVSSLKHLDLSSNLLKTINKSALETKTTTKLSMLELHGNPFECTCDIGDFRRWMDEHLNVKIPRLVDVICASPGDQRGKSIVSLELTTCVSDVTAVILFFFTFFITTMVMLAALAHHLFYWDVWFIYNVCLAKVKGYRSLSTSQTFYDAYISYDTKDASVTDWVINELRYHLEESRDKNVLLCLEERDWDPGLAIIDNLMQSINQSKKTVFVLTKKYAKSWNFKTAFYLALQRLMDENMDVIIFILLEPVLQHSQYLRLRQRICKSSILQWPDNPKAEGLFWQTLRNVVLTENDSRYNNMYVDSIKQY
Description: HEK293-Blue-hTLR-8 cells assay (SEAP reporter, R848 stimulation). Format: cell-based. The settings on record: HEK293-Blue-hTLR8 cells, R848, 20 hrs; read-out: HEK/hTLR8 IC50. The text has this:
HEK293-Blue-hTLR-8 Cells Assay:
A stable HEK293-Blue-hTLR-8 cell line was purchased from InvivoGen (Cat. #: hkb-ht1r8, San Diego, Calif., USA). These cells were originally designed for studying the stimulation of human TLR8 by monitoring the activation of NF-κB. A SEAP (secreted embryonic alkaline phosphatase) reporter gene was placed under the control of the IFN-β minimal promoter fused to five NF-κB and AP-1-binding sites. The SEAP was induced by activating NF-κB and AP-1 via stimulating HEK-Blue hTLR8 cells with TLR8 ligands. Therefore the reporter expression was declined by TLR8 antagonist under the stimulation of a ligand, such as R848, for incubation of 20 hrs. The cell culture supernatant SEAP reporter activity was determined using QUANTI-Blue™ kit (Cat. #: rep-qb1, Invivogen, San Diego, Ca, USA) at a wavelength of 640 nm, a detection medium that turns purple or blue in the presence of alkaline phosphatase.
HEK293-Blue-hTLR8 cells were incubated at a density of 250,000˜450,000 cells/mL in a volume of 170 μL in a 96-well plate in Dulbecco's Modified Eagle's medium (DMEM) containing 4.5 g/L glucose, 50 U/mL penicillin, […], […], 2 mM L-glutamine, 10% (v/v) heat-inactivated fetal bovine serum with addition of 20 μL test compound in a serial dilution in the presence of final DMSO at 1% and 10 μL of 60 uM R848 in above DMEM, perform incubation under 37° C. in a CO2 incubator for 20 hrs. Then 20 μL of the supernatant from each well was incubated with 180 μL Quanti-blue substrate solution at 37° C. for 2 hrs and the absorbance was read at 620˜655 nm using a spectrophotometer. The signaling pathway that TLR8 activation leads to downstream NF-κB activation has been widely accepted, and therefore similar reporter assay was modified for evaluating TLR8 antagonist.
With `[2H]c1ccc2c(N3C[C@H](CN4CCN(c5ccc(N6C[C@H]7C[C@@H]6CN7)nc5)CC4)O[C@H](C)C3)ccc(C#N)c2n1` [Example 153, 2-deuterio-5-[(2S,6R)-2-[[4-[6-[(1R,4R)-2,5-diazabicyclo[2.2.1]heptan-2-yl]-3-pyridyl]piperazin-1-yl]methyl]-6-methyl-morpholin-4-yl]quinoline-8-carbonitrile], the IC50 turned out to be 19 nM.

As for `C[C@@H]1CN(c2ccc(C#N)c3ncccc23)C[C@H](CN2CCN(c3ncc(F)c(N4CCNCC4)n3)CC2)O1` [Example 94, 5-[(2S,6R)-2-[[4-(5-fluoro-4-piperazin-1-yl-pyrimidin-2-yl)piperazin-1-yl]methyl]-6-methyl-morpholin-4-yl]quinoline-8-carbonitrile], the IC50 stood at 6 nM.

With `Cc1ccc(N2C[C@H](CN3CCN(c4nccc(N5CCNCC5)n4)CC3)O[C@H](C)C2)c2nccnc12` [Example 116, (2R,6S)-2-methyl-4-(8-methylquinoxalin-5-yl)-6-[[4-(4-piperazin-1-ylpyrimidin-2-yl)piperazin-1-yl]methyl]morpholine], the IC50 amounted to 5 nM.

For `[2H]c1ccc2c(N3C[C@H](CN4CC(c5cnc(N6C[C@@H](N)[C@H](OC)C6)cc5C)C4)O[C@H](C)C3)ccc(C#N)c2n1` [Example 146, 5-[(2S,6R)-2-[[3-[6-[(3R,4R)-3-amino-4-methoxy-pyrrolidin-1-yl]-4-methyl-3-pyridyl]azetidin-1-yl]methyl]-6-methyl-morpholin-4-yl]-2-deuterio-quinoline-8-carbonitrile], the IC50 is 14 nM.

Consider `C[C@@H]1CN(c2ccc(C#N)c3ncccc23)C[C@H](CN2CC(c3cccc(N4CCNCC4)c3)C2)O1` [Example 4, 5-[(2R,6S)-2-methyl-6-[[3-(3-piperazin-1-ylphenyl)azetidin-1-yl]methyl]morpholin-4-yl]quinoline-8-carbonitrile], for which the IC50 came out at 17 nM.

Turning to `[2H]c1ccc2c(N3C[C@H](CN4CCN(c5nc(C)cc(N6C[C@@H](N)[C@H](OC)C6)n5)CC4)O[C@H](C)C3)ccc(C#N)c2n1` [Example 144, 5-[(2S,6R)-2-[[4-[4-[(3R,4R)-3-amino-4-methoxy-pyrrolidin-1-yl]-6-methyl-pyrimidin-2-yl]piperazin-1-yl]methyl]-6-methyl-morpholin-4-yl]-2-deuterio-quinoline-8-carbonitrile], the IC50 turned out to be 1 nM.

Consider `CO[C@@H]1CN(c2nccc(N3CCN(C[C@H]4CN(c5ccc(C#N)c6ncccc56)C[C@@H](C)O4)CC3)n2)C[C@@H]1N` [Example 92, 5-[(2S,6R)-2-[[4-[2-[(3S,4R)-3-amino-4-methoxy-pyrrolidin-1-yl]pyrimidin-4-yl]piperazin-1-yl]methyl]-6-methyl-morpholin-4-yl]quinoline-8-carbonitrile], for which the IC50 is 2 nM.

Consider `C[C@@H]1CN(c2ccc(C#N)c3ncccc23)C[C@H](CN2CCN(c3cnc(N4CCNCC4)cn3)CC2)O1` [Example 6, 5-[(2R,6S)-2-methyl-6-[[4-(5-piperazin-1-ylpyrazin-2-yl)piperazin-1-yl]methyl]morpholin-4-yl]quinoline-8-carbonitrile], for which the IC50 stood at 7 nM.

On to `[2H]c1ccc2c(N3C[C@H](CN4CCN(c5ccc(N6C[C@@H]7C[C@H]6CN7)nc5)CC4)O[C@H](C)C3)ccc(C#N)c2n1` [Example 151, 2-deuterio-5-[(2S,6R)-2-[[4-[6-[(1S,4S)-2,5-diazabicyclo[2.2.1]heptan-2-yl]-3-pyridyl]piperazin-1-yl]methyl]-6-methyl-morpholin-4-yl]quinoline-8-carbonitrile], for which the IC50 is 23 nM.

Turning to `[2H]c1ccc2c(N3C[C@H](CN4CCN(c5cnc(N6CC(C)(N)C6)cc5C)CC4)O[C@H](C)C3)ccc(C#N)c2n1` [Example 133, 5-[(2S,6R)-2-[[4-[6-(3-amino-3-methyl-azetidin-1-yl)-4-methyl-3-pyridyl]piperazin-1-yl]methyl]-6-methyl-morpholin-4-yl]-2-deuterio-quinoline-8-carbonitrile], the IC50 was determined as 17 nM.

With `CO[C@@H]1CN(c2cc(C)nc(N3CCN(C[C@H]4CN(c5ccc(C#N)c6nccnc56)C[C@@H](C)O4)CC3)n2)C[C@@H]1N` [Example 120, 8-[(2S,6R)-2-[[4-[4-[(3S,4R)-3-amino-4-methoxy-pyrrolidin-1-yl]-6-methyl-pyrimidin-2-yl]piperazin-1-yl]methyl]-6-methyl-morpholin-4-yl]quinoxaline-5-carbonitrile], the IC50 was determined as 1 nM.

With `C[C@@H]1CN(c2ccc(C#N)n3ncc(F)c23)C[C@H](CN2CC(c3ccc(N4CC(C)(N)C4)cc3)C2)O1` [Example 160, 4-[(2S,6R)-2-[[3-[4-(3-amino-3-methyl-azetidin-1-yl)phenyl]azetidin-1-yl]methyl]-6-methyl-morpholin-4-yl]-3-fluoro-pyrazolo[1,5-a]pyridine-7-carbonitrile], the IC50 turned out to be 68 nM.

As to `C[C@@H]1CN(c2ccc(C#N)c3ncccc23)C[C@H](CN2CCN(c3ccnc(N4C[C@H](N)[C@@H](F)C4)n3)CC2)O1` [Example 110, 5-[(2S,6R)-2-[[4-[2-[(3S,4S)-3-amino-4-fluoro-pyrrolidin-1-yl]pyrimidin-4-yl]piperazin-1-yl]methyl]-6-methyl-morpholin-4-yl]quinoline-8-carbonitrile], the IC50 was found to be 2 nM.

On to `[2H]c1ccc2c(N3C[C@H](CN4CCN(c5nc(C)cc(N6CC(C)(N)C6)n5)CC4)O[C@H](C)C3)ccc(C#N)c2n1` [Example 135, 5-[(2S,6R)-2-[[4-[4-(3-amino-3-methyl-azetidin-1-yl)-6-methyl-pyrimidin-2-yl]piperazin-1-yl]methyl]-6-methyl-morpholin-4-yl]-2-deuterio-quinoline-8-carbonitrile], for which the IC50 was 1 nM.

For the molecule `C[C@@H]1CN(c2ccc(C#N)c3ncccc23)C[C@H](CN2CCN(c3ccnc(N4C[C@@H](F)[C@@H](N)C4)n3)CC2)O1` [Example 95, 5-[(2S,6R)-2-[[4-[2-[(3S,4R)-3-amino-4-fluoro-pyrrolidin-1-yl]pyrimidin-4-yl]piperazin-1-yl]methyl]-6-methyl-morpholin-4-yl]quinoline-8-carbonitrile], the IC50 was determined as 3 nM.

As for `CO[C@H]1CN(c2cc(C)nc(N3CCN(C[C@H]4CN(c5ccc(C#N)c6nccnc56)C[C@@H](C)O4)CC3)n2)C[C@H]1N` [Example 122, 8-[(2S,6R)-2-[[4-[4-[(3R,4S)-3-amino-4-methoxy-pyrrolidin-1-yl]-6-methyl-pyrimidin-2-yl]piperazin-1-yl]methyl]-6-methyl-morpholin-4-yl]quinoxaline-5-carbonitrile], the IC50 is 1 nM.

Turning to `C[C@@H]1CN(c2ccc(C#N)c3nccnc23)C[C@H](CN2CCN(c3ccnc(N4CC[C@@H](N)[C@H](F)C4)n3)CC2)O1` [Example 113, 8-[(2S,6R)-2-[[4-[2-[(3R,4R)-4-amino-3-fluoro-1-piperidyl]pyrimidin-4-yl]piperazin-1-yl]methyl]-6-methyl-morpholin-4-yl]quinoxaline-5-carbonitrile], the IC50 was 1 nM.

Regarding `C[C@@H]1CN(c2ccc(C#N)n3nccc23)C[C@H](CN2CC(c3ccc(N4CC(C)(N)C4)nc3)C2)O1` [Example 157, 4-[(2S,6R)-2-[[3-[6-(3-amino-3-methyl-azetidin-1-yl)-3-pyridyl]azetidin-1-yl]methyl]-6-methyl-morpholin-4-yl]pyrazolo[1,5-a]pyridine-7-carbonitrile], the IC50 stood at 118 nM.
